Measurements from patent US20150065524A1, “KINASE INHIBITOR POLYMORPHS” (Intellikine LLC, priority 2011, published 2015).
Each block holds one compound with its values, some of them ahead of it.

Key:
Format in all cases: physicochemical
[1] = Gravimetric Vapour Sorption (GVS); conditions: for Solid form by XRPD after the GVS experiment: material recovered after GVS; for Weight lost during the first sorption cycle (GVS): from 40 to 90% RH
Description: There was no hysteresis. The material is non-hygroscopic.
The sample was non-hygroscopic, with only 0.16% weight gain in the first sorption cycle.

[2] = Stability testing: storage at 40° C./75% RH or 25° C./97% RH, reanalysis by XRPD; conditions: for Stability at 40° C./75% RH, reanalysis by XRPD: stored at 40° C./75% RH, after 7 days, 21 days and 35 days; for Stability at 40° C./75% RH: salts of Formula I, salt screening; for Solid form by XRPD after storage at 40° C./75% RH: 7 days, samples of entries 38, 39, 41, 42; for Solid form after storage at 40° C./75% relative humidity: 8 days storage
Method: A sample of J00439 was stored at 40° C./75% RH. […] Thus this solid form (which will be referred to as Form A) was stable to accelerated stability testing conditions. Note that some variations in XRPD peak intensity were observed over time.
Samples of entries 38, 39, 41, and 42 were stored at 40° C./75% RH. […]

[3] = Drying of the solids under vacuum, reanalysis by XRPD; conditions: for Solid form after drying: vacuum oven at 40° C. overnight, XRPD and 1H NMR
Method: A sample of each solid was dried in a vacuum oven at 40° C. overnight, then the samples were reanalysed by XRPD and ^1H NMR.
Approximately 20 mg of compound of Formula I (Form A) were weighed into vials, and 150 microliters of solvent system were added. The vials were agitated at 50° C., 5° C., or cycled between room temperature and 50° C. for 4 to 5 days. Solids were isolated by filtration and characterized by XRPD and thermal analysis. From acetone/5% water at 5° C., a hydrate was isolated (see FIGS. 15 and 16). […] From dimethylacetamide (DMA) cycled between room temperature and 50° C. for 5 days, a solvate was isolated (see FIGS. 17 and 18). […] Inclusion of 10% or more water with DMA prevented formation of DMA solvate.

Heating to about 100° C. = test: Heating to about 100° C.
[4] = Stability testing: storage at 40° C./75% RH or 25° C./97% RH, reanalysis by XRPD; conditions: 8 days storage

Compound: Cc1ccc(S(=O)(=O)O)cc1 [p-Toluene sulfonic acid]
Stability at 40° C./75% RH [2]: Changes pattern after 3 days,

Compound: Maleic acid
Stability at 40° C./75% RH [2]: Stable for 7 days

Compound: CC(C)n1nc(-c2ccc3oc(N)nc3c2)c2c(N)ncnc21 [DMA solvate]
Solid form after heating (Heating to about 100° C.): converted to Form A
Solid form after storage at 40° C./75% relative humidity [2]: converted to Form A
Solid form after storage at 25° C./97% relative humidity [4]: converted to Form A

Compound: Methane sulfonic acid
Stability at 40° C./75% RH [2]: Deliquescent

Compound: 1,2-Ethane disulfonic acid
Stability at 40° C./75% RH [2]: Stable for 7 days

The next lines start with the values.

Hygroscopicity by GVS [1]: non-hygroscopic
Solid form by XRPD after the GVS experiment [1]: still pattern A
GVS weight change over the whole experiment ([1]; whole GVS experiment): 0.1%
Stability at 40° C./75% RH, reanalysis by XRPD [2]: stable
Stability at 40° C./75% RH, reanalysis by XRPD ([2]; listed as J00439): still pattern A
Compound: CC(C)n1nc(-c2ccc3oc(N)nc3c2)c2c(N)ncnc21 [Form A, 5-(4-amino-1-isopropyl-1H-pyrazolo[3,4-d]pyrimidin-3-yl)benzo[d]oxazol-2-Amine]

Solid form after drying [3]: desolvated to Form A
Weight lost during the first sorption cycle (GVS) ([1]; first sorption cycle): 28 % wt
Solid form by XRPD after the GVS experiment [1]: turned to Form A
Solid form by XRPD after storage at 40° C./75% RH [2]: turned into Form A
Compound: CC(C)n1nc(-c2ccc3oc(N)nc3c2)c2c(N)ncnc21 [Form E]

Solid form after vacuum drying ([3]; vacuum drying): converted to Form A
Solid form after heating (Heating to about 100° C.): converted to Form A
Solid form by XRPD after the GVS experiment [1]: converted to Form A
Solid form after storage at 40° C./75% relative humidity [2]: converted to Form A
Solid form after storage at 25° C./97% relative humidity [4]: converted to Form A
Compound: CC(C)n1nc(-c2ccc3oc(N)nc3c2)c2c(N)ncnc21 [hydrate]

Solid form after drying [3]: only partially desolvated
Weight lost during the first sorption cycle (GVS) ([1]; first sorption cycle): 28 % wt
Solid form by XRPD after the GVS experiment [1]: desolvated to Form A
Solid form by XRPD after storage at 40° C./75% RH [2]: turned into Form A
Compound: CC(C)n1nc(-c2ccc3oc(N)nc3c2)c2c(N)ncnc21 [Form B]

Stability at 40° C./75% RH [2]: Deliquescent
Compound: Ethane sulfonic acid

Solid form after drying [3]: stable on drying
Hygroscopicity by GVS [1]: non-hygroscopic
Weight loss on desorption (GVS) ([1]; between 90 and 0% RH): 0.38%
Weight gain in the first sorption cycle (GVS) ([1]; first sorption cycle): 0.16%
Solid form by XRPD after the GVS experiment [1]: still Form C
Solid form by XRPD after storage at 40° C./75% RH [2]: still of Form C
Compound: CC(C)n1nc(-c2ccc3oc(N)nc3c2)c2c(N)ncnc21 [Form C]
